Values quoted from earlier work as cited in US20080152704A1, “Dosage Forms of Palonosetron Hydrochloride Having Improved Stability and Bioavailability” (priority 2006, published 2008).

Key:
[1] = tested on: dopamine receptors
[2] = target: T1, 5-HT3 receptor (Homo sapiens, UniProt P46098)
T1 sequence (P46098 24-478): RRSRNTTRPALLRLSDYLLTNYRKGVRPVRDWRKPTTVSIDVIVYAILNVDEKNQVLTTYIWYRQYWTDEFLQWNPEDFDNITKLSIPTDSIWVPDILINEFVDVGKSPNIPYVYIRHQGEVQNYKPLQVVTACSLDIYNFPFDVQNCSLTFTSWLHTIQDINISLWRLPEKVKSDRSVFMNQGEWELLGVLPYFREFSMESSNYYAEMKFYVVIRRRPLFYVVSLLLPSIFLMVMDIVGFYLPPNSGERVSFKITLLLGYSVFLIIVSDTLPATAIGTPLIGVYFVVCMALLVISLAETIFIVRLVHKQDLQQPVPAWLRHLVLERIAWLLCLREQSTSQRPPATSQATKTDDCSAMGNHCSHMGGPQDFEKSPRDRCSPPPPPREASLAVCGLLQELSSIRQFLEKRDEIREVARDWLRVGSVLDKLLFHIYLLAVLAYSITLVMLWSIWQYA

Cl.O=C1c2cccc3c2[C@H](CCC3)CN1[C@@H]1CN2CCC1CC2 [Palonosetron, (3aS)-2-[(S)-1-Azabicyclo [2.2.2]oct-3-yl]-2,3,3a,4,5,6-hexahydro-1-oxo-1Hbenz[de] isoquinoline hydrochloride]
affinity for other receptors such as dopamine receptors [1]: low affinity | affinity as an antagonist for the 5-HT3 receptor [2]: high affinity
